The values below come from ChEMBL document CHEMBL5252547, “A review of salvinorin analogs and their kappa-opioid receptor activity” (Bioorg Med Chem Lett, 2018).

In the test the target is Kappa-type opioid receptor (Homo sapiens, UniProt P41145). As to the kind of experiment: Inhibition of human kappa opioid receptor assessed as inhibition constant.

pKi: −log10 of the molar value.

Chain of Kappa-type opioid receptor (P41145 whole entry): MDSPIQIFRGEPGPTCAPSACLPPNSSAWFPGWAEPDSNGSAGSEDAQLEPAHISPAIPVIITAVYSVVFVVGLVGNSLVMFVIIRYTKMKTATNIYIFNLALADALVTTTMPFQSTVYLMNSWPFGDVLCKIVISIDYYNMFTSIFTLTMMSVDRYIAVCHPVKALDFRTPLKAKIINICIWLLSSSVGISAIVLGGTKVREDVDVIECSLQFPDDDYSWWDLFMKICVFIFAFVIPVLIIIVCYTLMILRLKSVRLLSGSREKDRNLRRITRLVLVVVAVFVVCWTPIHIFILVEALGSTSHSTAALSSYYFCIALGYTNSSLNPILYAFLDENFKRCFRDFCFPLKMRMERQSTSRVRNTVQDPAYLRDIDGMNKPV

The term pKi denotes the Ki on a negative log10 scale, so that one unit is a factor of ten. `COC(=O)[C@@H]1C[C@H](OC(C)=O)C(=O)[C@H]2[C@@]1(C)CC[C@H]1C(=O)O[C@H](C(=O)Nc3ccccc3)C[C@]21C`: the negative-log Ki (pKi) was 6.00.
